Laboratory results reported in the NIST ThermoML archive (doi:10.1021/je800085u).

Assay: mn = molality of the nth substance listed, in mol/kg
Settings: 298.15 K, 101 kPa, Liquid, Taylor dispersion method

CCCCCCCCCCP(C)(C)=O [decyldimethylphosphine oxide] + O
Settings | binary diffusion coefficient [m2/s]
m1 = 0 | 5.9e-10
m1 = 0.002 | 5.8e-10
m1 = 0.003 | 5.28e-10
m1 = 0.004 | 2.07e-10
m1 = 0.0077 | 1.75e-10
m1 = 0.0111 | 1.56e-10
m1 = 0.0176 | 1.69e-10
m1 = 0.0215 | 1.63e-10
m1 = 0.0296 | 1.55e-10
m1 = 0.04 | 1.58e-10
